Assay results from patent publication US9708336B2, “Metallo-beta-lactamase inhibitors” (priority 2014, dated 2017).
pIC50: −log10 of the molar value. Read-outs that look alike come from different tables or passages of the source.

Tests used:
NDM-1 = NDM-1 (Klebsiella pneumoniae, UniProt C7C422); experiment: biochemical; format: biochemical
IMP-1 = IMP-1 (Serratia marcescens, UniProt P52699); experiment: biochemical; format: biochemical
Protocol: Enzyme Activity: Determination of IC50
The Class B enzyme activities were measured in the presence of the test inhibitor in a fluorescence assay against a commercially available substrate consisting of a cephalosporin core linking 7-hydroxycoumarin to fluorescein (CCF2-FA). The enzyme (NDM-1, IMP-1 or VIM-1) and the substrate were diluted in 100 mM KH2PO4 buffer (pH 7) containing 0.005% Tween-20 and 10 μM ZnSO4. […] The test inhibitor was dissolved in dimethylsulfoxide and diluted 1:50 in the assay, resulting in a final concentration range of 20 uM to 0.00063 uM. In a 384-well microplate, the test inhibitor was incubated with the metallo-β-lactamase enzyme and the substrate for 2 hours at 25° C. Fluorescence at 460 nm following excitation at 405 nm was measured. The IC50 value was determined from semi-logarithmic plots of enzyme inhibition versus inhibitor concentration, with a curve generated using a 4-parameter fit.

VIM-1 = VIM-1 (Pseudomonas aeruginosa (strain ATCC 15692 / DSM 22644 / CIP 104116 / JCM 14847 / LMG 12228 / 1C / PRS 101 / PAO1), UniProt A0A0F7KYQ8); experiment: Enzyme activity: determination of IC50, fluorescence assay with CCF2-FA substrate (VIM-1); format: biochemical
[1] = test system: Escherichia coli expressing NDM-1 (CLB30005); experiment: Antibiotic potentiation activity: synergistic concentration (MITC95) with imipenem, OD600 growth; format: cell-based; settings: concentration giving 95% inhibition of bacterial growth
In short: (§1)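 Spectrophotometric growth readings were taken following 22–24 h at 35 °C. Before that, organisms in 1.1× CAMHB were mixed with imipenem, used at 4 μg/ml in assay, and test compound.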

[2] = test system: Klebsiella pneumoniae expressing VIM-1 (IHMA599644); experiment: as above; format: cell-based; settings: concentration giving 95% inhibition of bacterial growth
In short: as §1

[3] = test system: Serratia marcescens expressing IMP-1 (CL5741); experiment: as above; format: cell-based; settings: concentration giving 95% inhibition of bacterial growth
In short: as §1

[4] = fluorescence assay with CCF2-FA substrate, read-out: NDM-1 IC50
[5] = fluorescence assay with CCF2-FA substrate, read-out: VIM-1 IC50
[6] = fluorescence assay with CCF2-FA substrate, read-out: IMP-1 IC50
[7] = VIM-1 IC50, fluorescence assay with CCF2-FA substrate

Sequence of IMP-1 (P52699 whole entry, looked up): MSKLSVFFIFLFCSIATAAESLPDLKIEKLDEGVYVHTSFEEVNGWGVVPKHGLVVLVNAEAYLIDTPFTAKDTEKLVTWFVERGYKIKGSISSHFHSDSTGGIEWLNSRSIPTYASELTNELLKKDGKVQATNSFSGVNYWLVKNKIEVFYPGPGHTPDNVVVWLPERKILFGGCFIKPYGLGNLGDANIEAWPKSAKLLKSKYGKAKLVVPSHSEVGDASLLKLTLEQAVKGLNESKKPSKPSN
Sequence of NDM-1 (C7C422 whole entry, looked up, species assumed): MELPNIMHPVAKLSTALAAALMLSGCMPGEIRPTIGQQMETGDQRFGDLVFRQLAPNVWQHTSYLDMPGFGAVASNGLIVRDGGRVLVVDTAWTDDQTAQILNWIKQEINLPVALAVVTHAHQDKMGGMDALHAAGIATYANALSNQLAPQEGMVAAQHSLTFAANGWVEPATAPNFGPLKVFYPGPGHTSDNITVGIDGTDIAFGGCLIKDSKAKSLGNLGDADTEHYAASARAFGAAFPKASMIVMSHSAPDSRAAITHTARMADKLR

Row | SMILES | pIC50 (NDM-1; [4]) | pIC50 (IMP-1) | pIC50 (VIM-1; [5]) | Escherichia coli expressing NDM-1 (CLB 30005) MITC95 [1] [µM] | Klebsiella pneumoniae expressing VIM-1 (IHMA 599644) MITC95 [2] [µM] | Serratia marcescens expressing IMP-1 (CL5741) MITC95 [3] [µM] | pIC50 (IMP-1; [6]) | pIC50 (NDM-1) | pIC50 (VIM-1; [7])
1 | C[C@H]1NC(=O)O[C@H]1c1ccc(-c2ccnc(S(N)(=O)=O)c2-c2nnn[nH]2)cc1 (racemic) [Example 191, (±)-4-(4-(cis-4-Methyl-2-oxooxazolidin-5-yl)phenyl)-3-(1H-tetrazol-5-yl)pyridine-2-sulfonamide] | 8.11 | 7.12 | 7.34 | 9.375 | 75 | 15.63 |  |  | 
2 | NS(=O)(=O)c1cccc(-c2ccc(C(O)C(F)(F)F)cc2)c1-c1nn[nH]n1 (stereo not drawn) [Example 3, 2(2H-tetrazol-5-yl)4′-(2,2,2-trifluoro-1-hydroxyethyl)biphenyl-3-sulfonamide] | 8.83 |  | 7.40 | 0.7813 | 200 | 1.563 | 8.05 |  | 
3 | CC(c1ccc(-c2cccc(S(N)(=O)=O)c2-c2nn[nH]n2)cc1)N1CCOCC1 (stereo not drawn) [Example 4, 4′-(1-morpholin-4-ylethyl)-2-(2H-tetrazol-5-yl)biphenyl-3-sulfonamide] | 8.55 |  | 6.71 | 0.7813 | >200 | 6.25 | 7.95 |  | 
4 | NS(=O)(=O)c1cccc(-c2ccc(-n3nccn3)cc2)c1-c1nn[nH]n1 [Example 5, 2-(2H-tetrazol-5-yl)-4′-(2H-1,2,3-triazol-2-yl)biphenyl-3-sulfonamide] | 8.46 |  | 7.25 | 0.7813 | >200 | 12.5 | 7.14 |  | 
5 | CC(CO)Oc1ccc(-c2cccc(S(N)(=O)=O)c2-c2nn[nH]n2)cc1 (stereo not drawn) [Example 6, 4′-(2-hydroxy-1-methylethoxy)-2-(2H-tetrazol-5-yl)biphenyl-3-sulfonamide] |  | 7.40 | 7.37 | 1.563 | >200 | 50 |  | 8.71 | 
6 | CC(C)(C)OC(=O)N1CCN(c2ccc(-c3cccc(S(N)(=O)=O)c3-c3nn[nH]n3)cc2)CC1 [Example 7, tert-butyl 4-[3′-sulfamoyl-2′-(2H-tetrazol-5-yl)biphenyl-4-yl]piperazine-1-carboxylate] | 8.43 | 7.53 | 6.31 | 6.25 | >200 | 12.5 |  |  | 
7 | COc1ccc(-c2cccc(S(N)(=O)=O)c2-c2nn[nH]n2)cc1 [Example 8, 4′-methoxy-2-(2H-tetrazol-5-yl)biphenyl-3-sulfonamide] | 8.40 |  |  | 0.3906 | 200 | 3.125 | 7.11 |  | 7.10
8 | CCN(CC)C(=O)c1ccc(-c2cccc(S(N)(=O)=O)c2-c2nn[nH]n2)cc1 [Example 9, N,N-diethyl-3′-sulfamoyl-2′-(2H-tetrazol-5-yl)biphenyl-4-carboxamide] | 8.83 |  | 6.56 | 3.125 | >200 | 12.5 | 7.76 |  | 
9 | NS(=O)(=O)c1cccc(-c2ccc(C(=O)N3CCOCC3)cc2)c1-c1nn[nH]n1 [Example 10, 4′-(morpholin-4-ylcarbonyl)-2-(2H-tetrazol-5-yl)biphenyl-3-sulfonamide] | 8.43 |  | 6.01 | 3.125 | >200 | 6.25 | 7.20 |  | 
10 | NS(=O)(=O)c1cccc(-c2ccc(C(=O)NC3CC3)cc2)c1-c1nn[nH]n1 [Example 11, N-cyclopropyl-3′-sulfamoyl-2′-(2H-tetrazol-5-yl)biphenyl-4-carboxamide] | 8.19 |  |  | 1.563 | >200 | 12.5 | 6.96 |  | 6.33
11 | NS(=O)(=O)c1cccc(-c2ccc(N3CCOCC3)cc2)c1-c1nn[nH]n1 [Example 12] | 8.46 |  | 7.02 | 3.125 | 200 | 6.25 | 7.38 |  | 
12 | CNC(=O)c1ccc(-c2cccc(S(N)(=O)=O)c2-c2nn[nH]n2)cc1 [Example 13, N-methyl-3′-sulfamoyl-2′-(2H-tetrazol-5-yl)biphenyl-4-carboxamide] | 8.26 |  | 6.65 | 1.563 | 200 | 200 | 6.76 |  | 
13 | NS(=O)(=O)c1cccc(-c2ccccc2)c1-c1nn[nH]n1 [Example 14, 2-(2H-tetrazol-5-yl)biphenyl-3-sulfonamide] | 8.28 |  | 6.96 | 0.3906 | 100 | 6.25 | 6.76 |  | 
14 | NC(=O)c1ccc(-c2cccc(S(N)(=O)=O)c2-c2nn[nH]n2)cc1 [Example 15, 3′-sulfamoyl-2′-(2H-tetrazol-5-yl)biphenyl-4-carboxamide] | 8.22 |  | 7.21 | 0.3906 | 18.75 | 15.63 | 6.87 |  | 
15 | CS(=O)(=O)c1ccc(-c2cccc(S(N)(=O)=O)c2-c2nn[nH]n2)cc1 [Example 16, 4′-(methylsulfonyl)-2-(2H-tetrazol-5-yl)biphenyl-3-sulfonamide] | 7.98 |  |  | 1.172 | 75 | 25 | 7.07 |  | 7.17
16 | NS(=O)(=O)c1cccc(-c2ccc(C(=O)NCCO)cc2)c1-c1nn[nH]n1 [Example 17, N-(2-hydroxyethyl)-3′-sulfamoyl-2′-(2H-tetrazol-5-yl)biphenyl-4-carboxamide] | 8.07 |  | 6.68 | 0.7813 | 100 | 53.13 | 7.06 |  | 
17 | NS(=O)(=O)c1cccc(-c2ccc(N3CCCCC3)cc2)c1-c1nn[nH]n1 [Example 18, 4′-piperidin-1-yl-2-(2H-tetrazol-5-yl)biphenyl-3-sulfonamide] | 8.69 |  |  | 3.906 | >200 | 103.1 | 7.63 |  | 6.49
18 | NS(=O)(=O)c1cccc(-c2cccnc2)c1-c1nn[nH]n1 [Example 19, 3-pyridin-3-yl-2-(2H-tetrazol-5-yl)benzenesulfonamide] | 7.61 |  | 6.57 | 0.3906 | 50 | 50 | 5.75 |  | 
19 | NS(=O)(=O)c1cccc(-c2cccs2)c1-c1nn[nH]n1 [Example 20, 2-(2H-tetrazol-5-yl)-3-thiophen-2-ylbenzenesulfonamide] | 7.69 |  | 6.44 | 1.823 | 166.7 | 18.75 | 6.48 |  | 
20 | NS(=O)(=O)c1cccc(-c2cnc(C3(O)CCC3)s2)c1-c1nn[nH]n1 [Example 21, 3-[2-(1-hydroxycyclobutyl)-1,3-thiazol-5-yl]-2-(2H-tetrazol-5-yl)benzenesulfonamide] | 7.20 |  | 6.25 | 12.89 | >200 | 100 | 5.64 |  | 
21 | NS(=O)(=O)c1cccc(-c2ccc(C3(C(F)(F)F)OCCO3)nc2)c1-c1nn[nH]n1 [Example 22, 2-(2H-tetrazol-5-yl)-3-{6-[2-(trifluoromethyl)-1,3-dioxolan-2-yl]pyridin-3-yl}benzenesulfonamide] | 8.70 |  | 7.57 | 1.563 | 200 | 6.25 | 7.50 |  | 
